In ChEMBL document CHEMBL5252530, “Biological importance of structurally diversified chromenes” (Eur J Med Chem, 2016):
In brackets after ≈: the same amount, converted by molar mass.

Key:
[1] = target: T1, Acetylcholinesterase (Electrophorus electricus, UniProt O42275); test: Competitive inhibition of electric eel acetyl cholinesterase measured for 3 mins by Ellman's method
[2] = target: T1, Acetylcholinesterase; test: Inhibition of electric eel AChE (type VI-S) using acetylthiocholine iodide as substrate preincubated for 15 mins followed by substrate addition by Ellman's method
[3] = test system: KB; test: Cytotoxicity against human KB cells assessed as inhibition of cell growth incubated for 72 hrs by neutral red dye based colorimetric assay; assay type: functional
[4] = target: Acetylcholinesterase (Homo sapiens, UniProt P22303); test: Inhibition of recombinant human AChE assessed as hydrolysis of acetylthiocholine by Ellman's method
[5] = target: Chymotrypsinogen A (Bos taurus) (UniProt P00766); test: Inactivation of bovine alpha-chymotrypsin assessed as Ki/KI ratio at pH 7.5
[6] = test system: Plasmodium falciparum; test: Antimalarial activity against chloroquine-susceptible Plasmodium falciparum 3D7; assay type: functional, organism-based
[7] = test system: Plasmodium falciparum; test: Antimalarial activity against chloroquine-resistant Plasmodium falciparum Dd2; assay type: functional, organism-based
[8] = test system: Leishmania major; test: Antileishmanial activity against Leishmania major promastigotes assessed as inhibition of [3H]thymidine uptake preincubated for 2 hrs followed by addition of [3H]thymidine measured after 18 hrs by scintillation counting; assay type: functional, organism-based
[9] = test system: Rattus norvegicus; test: Antiinflammatory activity in rat assessed as inhibition of the carrageenan-induced right hind paw edema at 0.1 mmol/kg; assay type: functional; set-up: scale not given: the % may be the effect or the level left
[10] = target: Cannabinoid receptor 2 (Homo sapiens, UniProt P34972); test: Binding affinity to CB2 (unknown origin)
[11] = test system: Planktothrix perornata; test: Algicidal activity against Planktothrix perornata; assay type: functional, organism-based
[12] = test system: Selenastrum capricornutum; test: Algicidal activity against Selenastrum capricornutum; assay type: functional, organism-based
[13] = Cytotoxicity against human Lu1 cells; assay type: functional; details: read-out: ED50 (the source's name)
[14] = test system: Col2; test: Cytotoxicity against human Col2 cells; assay type: functional; details: read-out: ED50 (the source's name)
[15] = test system: KB; test: Cytotoxicity against human KB cells; assay type: functional; details: read-out: ED50 (the source's name)
[16] = test system: LNCaP; test: Cytotoxicity against human LNCaP cells; assay type: functional; details: read-out: ED50 (the source's name)
[17] = Inhibition of ECE (unknown origin); set-up: species or system Homo sapiens
[18] = target: 5-hydroxytryptamine receptor 1B (Rattus norvegicus, UniProt P28564); test: Binding affinity to rat 5-HT1B
[19] = Binding affinity to bovine 5-HT1B; set-up: species or system Bos taurus
[20] = Selectivity ratio of Ki for bovine 5-HT1B to rat 5-HT1B
[21] = target: Chymotrypsinogen A (Bos taurus) (UniProt P00766); test: Inactivation of bovine alpha-chymotrypsin assessed as Ki/KI ratio
[22] = test system: Human immunodeficiency virus 1; test: Antiviral activity against HIV-1 3B in human H9 cells incubated for 4 days by ELISA; assay type: functional, organism-based; details: Human immunodeficiency virus 1, 3B, H9, 96 h
[23] = Therapeutic index, ratio of IC50 for human H9 cells to EC50 for HIV-1 3B in human H9 cells; assay type: toxicity, cell-based; details: read-out: Ratio IC50/EC50

T1 sequence (O42275 whole entry): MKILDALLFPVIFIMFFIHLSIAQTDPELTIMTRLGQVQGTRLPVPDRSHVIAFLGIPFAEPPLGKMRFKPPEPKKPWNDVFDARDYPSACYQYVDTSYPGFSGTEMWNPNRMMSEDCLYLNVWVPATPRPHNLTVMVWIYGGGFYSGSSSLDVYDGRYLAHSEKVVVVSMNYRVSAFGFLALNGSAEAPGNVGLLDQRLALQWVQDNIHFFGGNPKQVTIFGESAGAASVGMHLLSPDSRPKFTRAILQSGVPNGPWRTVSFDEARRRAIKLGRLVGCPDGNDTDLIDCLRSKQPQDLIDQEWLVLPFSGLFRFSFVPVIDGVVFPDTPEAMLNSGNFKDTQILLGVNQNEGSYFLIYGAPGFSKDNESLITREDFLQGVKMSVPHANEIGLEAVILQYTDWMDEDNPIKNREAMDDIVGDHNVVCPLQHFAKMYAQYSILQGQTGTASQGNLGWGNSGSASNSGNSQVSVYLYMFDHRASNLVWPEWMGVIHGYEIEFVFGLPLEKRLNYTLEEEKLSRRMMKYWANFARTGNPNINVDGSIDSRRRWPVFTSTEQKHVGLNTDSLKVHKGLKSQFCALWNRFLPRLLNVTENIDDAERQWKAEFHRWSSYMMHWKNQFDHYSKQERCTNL
Acetylcholinesterase (Homo sapiens, UniProt P22303), sequence (P22303 whole entry): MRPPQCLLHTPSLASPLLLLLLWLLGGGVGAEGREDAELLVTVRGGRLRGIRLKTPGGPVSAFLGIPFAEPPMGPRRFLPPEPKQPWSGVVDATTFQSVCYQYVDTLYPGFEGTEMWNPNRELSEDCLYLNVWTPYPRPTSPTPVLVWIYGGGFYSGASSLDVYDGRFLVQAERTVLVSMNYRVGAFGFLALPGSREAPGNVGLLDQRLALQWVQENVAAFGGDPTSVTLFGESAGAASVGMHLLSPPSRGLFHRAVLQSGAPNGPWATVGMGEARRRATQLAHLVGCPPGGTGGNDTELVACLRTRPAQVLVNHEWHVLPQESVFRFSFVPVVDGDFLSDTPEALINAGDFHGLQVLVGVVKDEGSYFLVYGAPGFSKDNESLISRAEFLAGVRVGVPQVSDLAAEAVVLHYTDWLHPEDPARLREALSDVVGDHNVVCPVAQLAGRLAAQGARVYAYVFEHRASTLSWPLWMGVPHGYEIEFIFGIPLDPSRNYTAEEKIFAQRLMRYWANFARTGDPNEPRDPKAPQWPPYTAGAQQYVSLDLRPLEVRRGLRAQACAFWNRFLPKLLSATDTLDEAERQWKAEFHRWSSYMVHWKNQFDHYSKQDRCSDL
Cannabinoid receptor 2, sequence (P34972 whole entry): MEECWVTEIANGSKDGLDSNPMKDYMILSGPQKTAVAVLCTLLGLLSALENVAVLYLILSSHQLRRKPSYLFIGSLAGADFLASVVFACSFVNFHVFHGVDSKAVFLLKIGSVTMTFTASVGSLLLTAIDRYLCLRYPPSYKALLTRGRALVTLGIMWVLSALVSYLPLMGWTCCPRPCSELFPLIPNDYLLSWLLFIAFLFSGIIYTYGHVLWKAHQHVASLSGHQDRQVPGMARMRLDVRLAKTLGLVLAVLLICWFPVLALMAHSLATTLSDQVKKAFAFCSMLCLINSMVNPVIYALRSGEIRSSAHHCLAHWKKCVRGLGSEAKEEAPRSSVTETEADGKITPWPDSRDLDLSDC
5-hydroxytryptamine receptor 1B, sequence (P28564 whole entry): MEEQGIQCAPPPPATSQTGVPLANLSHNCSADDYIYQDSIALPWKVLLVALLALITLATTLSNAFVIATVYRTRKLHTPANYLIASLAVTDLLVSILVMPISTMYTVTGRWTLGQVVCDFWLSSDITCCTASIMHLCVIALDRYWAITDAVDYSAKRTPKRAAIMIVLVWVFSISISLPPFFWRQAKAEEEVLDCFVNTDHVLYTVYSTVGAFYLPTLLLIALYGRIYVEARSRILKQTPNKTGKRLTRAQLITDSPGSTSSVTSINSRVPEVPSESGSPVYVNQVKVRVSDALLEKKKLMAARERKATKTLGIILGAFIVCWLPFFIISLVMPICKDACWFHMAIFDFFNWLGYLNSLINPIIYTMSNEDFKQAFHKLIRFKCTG

Work on `CC(C)=CCCC1(C)C=Cc2c(cc(O)c3c(=O)c4cccc(O)c4oc23)O1` (stereo unspecified) yielded a Ki [1] of 1.9 µM, an IC50 [2] of 8.47 µM and a Ki [2] of 3.43 µM.

`C=C(C)C(O)Cc1c(O)c(C(=O)C(C)CC)c(O)c2c(CCC)cc(=O)oc12` (stereo unspecified) gave an IC50 [3] of 4 mg/L (≈ 10.3 µM).

With `COc1cc2cc(-c3ccc(CN(CCO)Cc4ccccc4)cc3)c(=O)oc2cc1OC` the Ki [4] was 0.0105 µM.

In the case of `O=C(Oc1cccc(Cl)c1)c1cc2cc(CCl)ccc2oc1=O`, the Ratio [5] is reported as 7.6 10^5/M/s.

In the case of `Cc1cccc2oc(=O)c3c(c12)O[C@H](C)[C@@]3(C)CC(=O)C1OC1(C)C` (stereo partly specified), the IC50 [6] is reported as greater than 50 µM and the IC50 [7] is reported as greater than 50 µM.

Molecule `Cc1cccc2oc(=O)c3c(c12)O[C@@H](C)[C@@]3(C)CC(=O)C1OC1(C)C` (stereo partly specified) has an IC50 [8] of 13.4 µM, an IC50 [6] greater than 50 µM and an IC50 [7] greater than 50 µM.

`CCOC(=O)C1(CC)Oc2ccc3c(C)cc(=O)oc3c2O1` (stereo unspecified) gave an Activity [9] of 55%.

With `CCCCCCC(C)(C)c1cc(O)c2c(c1)oc(=O)c1ccc(OC)cc12` the Ki [10] was 0.0067 µM.

For `CC(C)CC(=O)N(C)CCc1ccc2c(c1)C=CC(C)(C)O2`, the Activity [11] was 10 µM, the IC50 ([11]; Planktothrix perornata) was 2.3 µM and the Activity [12] was 100 µM. The IC50 ([12]; Selenastrum capricornutum) was 12.6 µM.

`CCCCCCC(C)(C)c1cc(O)c2c(c1)oc(=O)c1ccc(C)cc12` showed a Ki [10] of 0.0031 µM.

With `Cc1cc(=O)oc2c3c(ccc12)OC(C)(c1ccccc1)O3` (stereo unspecified) the Activity [9] was 55%.

For `CCC(C)c1cc(=O)oc2c(C(=O)CC(C)CO)c(O)c(CC=C(C)C)c(O)c12` (stereo unspecified), the EC50 [13] was 11.1 mg/L (≈ 27.6 µM), the EC50 [14] was 11.1 mg/L (≈ 27.6 µM) and the EC50 [15] was 11.1 mg/L (≈ 27.6 µM). For the same molecule, the EC50 [16] was 11.1 mg/L (≈ 27.6 µM).

`CC(C)CC(=O)c1c(O)cc(O)c2c(-c3ccccc3)cc(=O)oc12` [ISODISPAR B] showed an IC50 [3] of 4 mg/L (≈ 11.8 µM).

`CC1(C)C=Cc2c(ccc3c2O[C@H](O)[C@H]2c4ccc(O)cc4O[C@@H]32)O1` showed an IC50 [17] of 9 µM.

`COc1ccc2c(c1)c(CC(=O)O)c(C)n2C(=O)c1ccc(Cl)cc1` [INDOMETHACIN] showed an Activity [9] of 47%.

For `C1=C(CN2CCOCC2)COc2c1cccc2OCC1COCCN1` (stereo unspecified), the Ki [18] was 0.047 µM, the Ki [19] was 0.63 µM and the Ratio Ki [20] was 13.

Work on `COc1cc2cc(-c3ccc(C[N+](C)(C)Cc4ccccc4)cc3)c(=O)oc2cc1OC` yielded a Ki [4] of 0.0105 µM.

With `CCN(Cc1ccccc1)Cc1ccc(-c2cc3cc(OC)c(OC)cc3oc2=O)cc1` the Ki [4] was 0.0105 µM.

`CC(C)=CCc1c(O)c(C(=O)CC(C)CO)c2oc(=O)cc(-c3ccccc3)c2c1O` (stereo unspecified) gave an EC50 [13] of 11.1 mg/L (≈ 26.3 µM), an EC50 [14] of 11.1 mg/L (≈ 26.3 µM) and an EC50 [15] of 11.1 mg/L (≈ 26.3 µM). It also gave an EC50 [16] of 11.1 mg/L (≈ 26.3 µM).

In the case of `O=C(Oc1cccc(Cl)n1)c1cc2cc(CCl)ccc2oc1=O`, the Ratio [21] is reported as 1.1 10^5/M/s.

`C=C(C)C(O)Cc1c(O)c(C(=O)C(C)C)c(O)c2c(-c3ccccc3)cc(=O)oc12` (stereo unspecified) showed an IC50 [3] of 4 mg/L (≈ 9.79 µM).

`CC(C)=CCC/C(C)=C/CC[C@@]1(C)C=Cc2c(cc(C)c(C(=O)O)c2O)O1` [DAURICHROMENIC ACID] gave an EC50 [22] of 5.67 mg/L (≈ 15.3 µM) and a selectivity ratio [23] of 3.71.

In the case of `COc1cc2cc(-c3ccc(CN(C)Cc4ccccc4)cc3)c(=O)oc2cc1OC`, the Ki [4] is reported as 0.0445 µM.

With `C=C(C)C(O)Cc1c(O)c(C(=O)C(C)CC)c(O)c2c(-c3ccccc3)cc(=O)oc12` (stereo unspecified) the IC50 [3] was 4 mg/L (≈ 9.47 µM).
